≈ marks a conversion by molar mass, not a printed value. Like-named read-outs stand apart in the source and are kept apart here.
Experiments:
Lung Cancer A549 = assay: MTT cytotoxicity assay, A549; assay type: cell-based; conditions: Homo sapiens, 48 h, read-out: IC50 (µM) ± SEM, Lung Cancer A549
Protocol: (§1) Cytotoxic activities of the synthesized derivatives were screened against leukemia (HL60), liver (HepG2), breast (MCF-7), and lung (A549) cancer cell lines and non-cancerous THLE2 and WISH cells at different concentrations [0.01–100 µM] for 48 h using the MTT assay (Table 1).
(§2) Human promyelocytic leukemia ”HL-60”, human hepatocellular carcinoma “HepG2”, human breast cancer “MCF-7”, human lung cancer “A549” cell lines, and two normal cell lines, THLE-2 as normal adult liver epithelial cells and WISH as normal epithelial cells, were obtained from American Type Culture Collection “Rockville, MD, USA”.
(§3) According to the manufacturer’s protocol, the cells were seeded in 96-well plates at a concentration of 5 × 10^4 cells per well (200 µL). Different concentrations of the tested compounds were used to test the cytotoxicity. […] A non-linear regression of curve fit was used to calculate the IC50.

Leukemia Cancer HL60 = assay: MTT cytotoxicity assay, HL60; assay type: cell-based; conditions: Homo sapiens, HL-60, 48 h, read-out: IC50 (µM) ± SEM, Leukemia Cancer HL60
Protocol: as §1, §2, §3

Breast Cancer MCF-7 = assay: MTT cytotoxicity assay, MCF-7; assay type: cell-based; conditions: Homo sapiens, MCF7, 48 h, read-out: IC50 (µM) ± SEM, Breast Cancer MCF-7
Protocol: as §1, §2, §3

Liver Cancer HepG2 = assay: MTT cytotoxicity assay, HepG2; assay type: cell-based, human; conditions: read-out: IC50 (µM) ± SEM, Liver Cancer HepG2
Protocol: as §1, §2, §3

HepG2 [1] = conditions: ref [37]; cited from earlier work
[2] = system: promyelocytic leukemia cell line (HL60); set-up: method as in PMID 19322800; conditions: ref [38]; cited from earlier work
Normal Liver THLE2 = assay: MTT cytotoxicity assay, normal THLE2; assay type: cell-based; conditions: Homo sapiens, THLE-2, 48 h, read-out: IC50 (µM) ± SEM, Normal Liver THLE2
Protocol: as §1, §2, §3

HepG2 [3] = system: HepG2; set-up: method as in PMID 24148965, PMID 26890810; conditions: ref [41],[43]; read-out: IC50 on HepG2 (apoptotic effect); cited from earlier work
leukemia CCRF-CEM = system: leukemia CCRF-CEM; set-up: method as in PMID 21439691; conditions: ref [39]; cited from earlier work
[4] = system: non-small-cell lung cancer HOP-92; set-up: method as in PMID 21439691; conditions: ref [39]; cited from earlier work
colon cancer HCC-2998 = system: colon cancer HCC-2998; set-up: method as in PMID 21439691; conditions: ref [39]; cited from earlier work

Work on `Cc1cc(=O)oc2cc(O)ccc12` [Compound 3, 7-Hydroxy-4-methylcoumarin] yielded an IC50 (Lung Cancer A549) of 16.5 ± 1.98 µM, an IC50 (Leukemia Cancer HL60) of 42.55 ± 0.22 µM and an IC50 (Breast Cancer MCF-7) of 29.3 ± 1.02 µM. The IC50 (Liver Cancer HepG2; Homo sapiens, HepG2, 48 h) was 95.7 ± 1.13 µM.

For `Cc1cc(=O)oc2cc(OCC(=O)N/N=C/c3ccc(Br)cc3)ccc12` [IV], the “IC50 against HepG2” value (HepG2 [1]) is given as 4.67 ± 0.78 µg/mL (≈ 11.2 µM).

In the case of `Cc1cc(=O)oc2cc(OC(C)/C=C/C3=CC(=O)C(C)(C)O3)ccc12` (centres unmarked) [V], the GI50 [2] is given as 0.5 ± 0.02 µM.

Work on `Cc1c(Br)c(=O)oc2cc(OC(=O)/C=C/c3ccccc3)ccc12` [Compound 8c, (2E)-3-bromo-4-methyl-2-oxo-2H-chromen-7-yl cinnamate] yielded an IC50 (Lung Cancer A549) of 24.3 ± 0.37 µM, an IC50 (Leukemia Cancer HL60) of 48.1 ± 0.88 µM and an IC50 (Breast Cancer MCF-7) of 67.3 ± 2.03 µM. The IC50 (Liver Cancer HepG2; Homo sapiens, HepG2, 48 h) was 17.4 ± 0.19 µM, the IC50 (Normal Liver THLE2) was 124 ± 2.12 µM and the melting point was 170 °C.

In the case of `C/C(=N\NC(=O)COc1ccc2c(C)cc(=O)oc2c1)c1ccc(Cl)cc1` [III], the “IC50 against HepG2” value (HepG2 [1]) is given as 2.84 ± 0.48 µg/mL (≈ 7.38 µM).

`Cc1cc(=O)oc2cc(OC(=O)/C=C/c3ccccc3)ccc12` [Compound 8a, (2E)-4-Methyl-2-oxo-2H-chromen-7-yl Cinnamate] showed an IC50 (Lung Cancer A549) of 19.6 ± 0.89 µM, an IC50 (Leukemia Cancer HL60) of 34.8 ± 0.64 µM and an IC50 (Breast Cancer MCF-7) of 39.3 ± 1.69 µM. It also gave an IC50 (Liver Cancer HepG2; 48 h) of 75.2 ± 1.39 µM and a melting point of 96 °C.

In the case of `COc1cccc2c1C(=O)c1c(O)c3c(c(O)c1C2=O)C[C@@](O)(C(=O)CO)C[C@@H]3O[C@H]1C[C@H](N)[C@H](O)[C@H](C)O1` [doxorubicin], the “IC50 against HepG2” value (HepG2 [1]) is given as 2.11 ± 0.13 µg/mL (≈ 3.88 µM).

`O=C(O)/C=C/c1ccccc1` [Compound 6, cinnamic acid] showed an IC50 (Lung Cancer A549) of 27.6 ± 1.95 µM, an IC50 (Leukemia Cancer HL60) of 88.21 ± 0.51 µM and an IC50 (Breast Cancer MCF-7) of 28.6 ± 0.91 µM. The IC50 (Liver Cancer HepG2; Homo sapiens, HepG2, 48 h) was 36.58 ± 0.19 µM.

In the case of `O=C/C=C/c1ccccc1` [cinnamaldehyde], the IC50 (HepG2 [3]) is listed as 9.76 ± 0.67 µM.

For `CC(=O)c1cc2c(C)cc(=O)oc2cc1OCCN1CCOCC1` [VI], the “GI, leukemia CCRF-CEM” value (leukemia CCRF-CEM) is given as 627.1 µM, the “GI, non-small-cell lung cancer HOP-92” value [4] is given as 237.8 µM and the “GI, colon cancer HCC-2998” value (colon cancer HCC-2998) is given as 341.4 µM.

In the case of `CN[C@@H]1C[C@H]2O[C@@](C)([C@@H]1OC)n1c3ccccc3c3c4c(c5c6ccccc6n2c5c31)C(=O)NC4` [Staurosporine, reference compound], the IC50 (Lung Cancer A549) is reported as 3.7 ± 0.09 µM and the IC50 (Breast Cancer MCF-7) is reported as 3.06 ± 0.42 µM.
